Reference: patent US20060275303A1, “Modulating angiogenesis using LL-37/HCAP-18” (priority 2003, published 2006)
“Also recorded” adds a separate entry of the source. Where no end group is shown, it is not given here. [ ]: non-standard residue; d: D form.

Columns and labels:
[1] = test system: HUVECs; assay: Inhibition of the LL-37/hCAP-18-induced proliferative response of endothelial cells; format: cell-based, human; conditions: for effect of the inhibitor on LL-37/hCAP-18-induced endothelial proliferation: HUVECs preincubated with the inhibitor (pertussis toxin 10 ng/ml); for effect of the inhibitor on baseline cell proliferation: HUVECs, without LL-37/hCAP-18
Description: (§1) Endothelial cells from human umbilical veins (HUVEC) were isolated as described before^8. 10^4 cells were seeded on six well plastic dishes in serum free medium. Different concentrations of LL-37 were added to the culture medium. VEGF (5 ng/ml, 165 amino acid variant, Sigma Chemicals, Munich, Germany) was used as positive control. After 72 h the cells were detached from the support and counted. Experiments were repeated ten times using synthetic LL-37/hCAP-18 (37 C-terminal amino acids) and the hexapeptide WKYMVm, wherein “m” denotes the D-form of the amino acid methionine, from two different sources (IPF Pharmaceuticals, Hannover, Germany and Institute for Biochemistry, Humboldt-University of Berlin, Germany). As control peptide we used the peptide L-14 […] to have any interactions with FPRL1 from the same source (Humboldt-University). Human serum (10%, donor with ABO blood group O) was applied under the same conditions to analyze any impact on induction of proliferation by LL-37. For inhibition experiments we applied inhibitors of G-protein coupled receptors (pertussis toxin, 10 ng/ml), PI-3K (wortmannin), and PKC (GF 109203X). For Matrigel assays HUVECs were seeded on Matrigel support (Beckton Dickinson, Franklin Lakes, N.J.) and cultivated in serum free medium in the absence or presence of 0.5 μg/ml LL-37. After 18 h, the cultures were inspected for the formation of rings and cords. Experiments were repeated three times.
As a next step we analyzed which mechanisms might be involved in the angiogenic activity of LL-37/hCAP-18. We applied inhibitors of G-protein coupled receptors (pertussis toxin), PI-3K (wortmannin), and PKC (GF 109203X) and monitored cell proliferation as outcome parameter.

[2] = test system: HUVECs; assay: In vitro proliferation assay with HUVECs; format: cell-based, human
Description: as §1
We measured the ability of LL-37/hCAP-18 to accelerate proliferation of HUVECs in a proliferation assay. […] HUVECs were seeded on six well plastic dishes and cultivated in serum free medium. Different concentrations of LL-37/hCAP-18 and control peptides were added to the culture medium. Figures on the left hand side indicate the numbers of cells per μl of volume after 72 h. VEGF was used as positive control. In vitro proliferation was not inhibited by human serum. A significance level of P<0.05 is labeled with **.b. […] HUVECs were seeded on Matrigel support and cultivated in serum free medium in the absence (c) or presence (d) of 0.5 μg/ml LL-37/hCAP-18. After 18 h, the cultures were inspected for the formation of rings and cords. Representative figures are shown.

[3] = test system: ischemic hindlimb; assay: Rabbit hind limb model of arteriogenesis and angiogenesis; format: in vivo; conditions: 200 μg intramuscular 7 days after femoral artery excision, vs PBS control, day 35
Description: To analyze angiogenic effects of LL-37 in vivo we used a rabbit model of angiogenesis. German Giant Rabbits (6.5±0.4 kg, n=8) were subjected to ligation of the external iliac artery (proximally), the popliteal and saphenous arteries (distally) and all femoral artery branches, followed by excision of the entire femoral artery. Seven days after surgery, synthetic LL-37 (200 μg in 1 ml PBS) or PBS alone as control were injected into the muscles of the medial thigh and the calf (5 injections sites, n=4/group). Seven (baseline) and thirty-five days after surgery, angiography was performed by automated injection of contrast agent into the abdominal aorta (4 ml at 2 ml/sec; cine-angiography 25 frames/sec; Siemens, Munich, Germany). Collateral growth was defined as the increase in angiographic collateral score between baseline and 35 days after initial surgery (assessed by counting the contrast-opacified collateral vessels in the medial thigh using a grid overlay)^12. Blood flow was assessed by cine-frame-count of the passage time of contrast agent between the common iliac artery and the anterior tibial artery (proximal and distal landmarks), adapting the TIMI frame-count method to peripheral blood flow^13. Blood flow measurements correlate well with results obtained with doppler flow-wire in the internal iliac artery (Jomed, Haan, Germany). Tissue specimens were sampled from the right gastrocnemius and fibularis muscles for histology (alkaline phosphatase staining using an indoxyl-tetrazolium method), capillary density was assessed as the ratio of capillaries to muscle fibers (4 fields, 200× magnitude).
To assess the effect of LL-37/hCAP-18 on both angiogenesis and the induction of collateral circulation under pathological conditions, we applied the substance in a rabbit hind limb model. In this model angiogenesis and collateral vessel growth (arteriogenesis) are induced by excision of the femoral artery. Seven days after surgical excision of the femoral artery, baseline measurements were performed and LL-37/hCAP-18 or buffer as control were injected into the ischemic hindlimb.

[4] = test system: HUVECs; assay: In vitro Matrigel assay (formation of rings and cords); format: cell-based, human; conditions: HUVECs on Matrigel, serum free medium, 0.5 μg/ml, 18 h
Description: Endothelial cells from human umbilical veins (HUVEC) were isolated as described before^8. 10^4 cells were seeded on six well plastic dishes in serum free medium. Different concentrations of LL-37 were added to the culture medium. VEGF (5 ng/ml, 165 amino acid variant, Sigma Chemicals, Munich, Germany) was used as positive control. After 72 h the cells were detached from the support and counted. Experiments were repeated ten times using synthetic LL-37/hCAP-18 (37 C-terminal amino acids) and the hexapeptide WKYMVm, wherein “m” denotes the D-form of the amino acid methionine, from two different sources (IPF Pharmaceuticals, Hannover, Germany and Institute for Biochemistry, Humboldt-University of Berlin, Germany). As control peptide we used the peptide L-14 […] to have any interactions with FPRL1 from the same source (Humboldt-University). Human serum (10%, donor with ABO blood group O) was applied under the same conditions to analyze any impact on induction of proliferation by LL-37. For inhibition experiments we applied inhibitors of G-protein coupled receptors (pertussis toxin, 10 ng/ml), PI-3K (wortmannin), and PKC (GF 109203X). […]
We measured the ability of LL-37/hCAP-18 to accelerate proliferation of HUVECs in a proliferation assay. […]

[5] = serum free medium, cell count after 72 h

Molecule	effect of the inhibitor on LL-37/hCAP-18-induced endothelial proliferation [1]	effect of the inhibitor on baseline cell proliferation [1]	endothelial proliferation [2, 5]	further results
CN(C)CCCn1cc(C2=C(c3c[nH]c4ccccc34)C(=O)NC2=O)c2ccccc21 [GF 109203X]	inhibition of the proliferative response; also recorded: inhibited activities of LL-37/hCAP-18 on endothelial proliferation	no effect on the baseline measurements	–	–
LLGDFFRKSKEKIGKEFKRIVQRIKDFLRNLVPRTES [LL-37/hCAP-18, human cathelicidin antimicrobial peptide, the 37 C-terminal amino acid residues; synthetic peptide used in the tests]	–	–	dose-dependent increase of endothelial proliferation	proliferative activity in the presence of human serum ([2]; 10% human serum, 72 h): not inhibited; also recorded: not blocked; minimal concentration necessary to induce significant increase of proliferation [2, 5]: 50 ng/mL; blood flow (cine-frame-count of contrast agent passage time) [3]: significantly increased; also recorded: significantly augmented; capillary density (capillaries to muscle fibers, calf muscles) [3]: higher capillary density; collateral growth (increase in angiographic collateral score, medial thigh) [3]: significantly increased collateral growth; also recorded: significant increase; formation of rings and cords of cells [4]: significantly induces the formation of visible rings and cords of cells
WKYMVm (WKYMV[dM]) [synthetic hexapeptide, "m" denotes the D-form of methionine; specific agonist for FPRL1, reference compound]	–	–	stimulated proliferation of endothelial cells	–
pertussis toxin	inhibition of the proliferative response; also recorded: inhibited activities of LL-37/hCAP-18 on endothelial proliferation	no effect on the baseline measurements	–	–
